Source: ChEMBL document CHEMBL3351804, “Development of 2-aryl substituted quinazolin-4(3H)-one, pyrido[4,3-d]pyrimidin-4(3H)-one and pyrido[2,3-d]pyrimidin-4(3H)-one derivatives as microsomal prostaglandin E(2) synthase-1 inhibitors” (Bioorg Med Chem Lett, 2014)

Legend:
[1] = biological target: Prostaglandin G/H synthase 1 (Homo sapiens) (UniProt P23219); experiment: Inhibition of COX1 in human U937 cells at 10 uM; assay type: cell-based; conditions: U-937
[2] = biological target: T1, Cytosolic phospholipase A2 (Homo sapiens) (UniProt P47712); experiment: Inhibition of cPLA2 (unknown origin) at 10 uM
T1 sequence (whole entry): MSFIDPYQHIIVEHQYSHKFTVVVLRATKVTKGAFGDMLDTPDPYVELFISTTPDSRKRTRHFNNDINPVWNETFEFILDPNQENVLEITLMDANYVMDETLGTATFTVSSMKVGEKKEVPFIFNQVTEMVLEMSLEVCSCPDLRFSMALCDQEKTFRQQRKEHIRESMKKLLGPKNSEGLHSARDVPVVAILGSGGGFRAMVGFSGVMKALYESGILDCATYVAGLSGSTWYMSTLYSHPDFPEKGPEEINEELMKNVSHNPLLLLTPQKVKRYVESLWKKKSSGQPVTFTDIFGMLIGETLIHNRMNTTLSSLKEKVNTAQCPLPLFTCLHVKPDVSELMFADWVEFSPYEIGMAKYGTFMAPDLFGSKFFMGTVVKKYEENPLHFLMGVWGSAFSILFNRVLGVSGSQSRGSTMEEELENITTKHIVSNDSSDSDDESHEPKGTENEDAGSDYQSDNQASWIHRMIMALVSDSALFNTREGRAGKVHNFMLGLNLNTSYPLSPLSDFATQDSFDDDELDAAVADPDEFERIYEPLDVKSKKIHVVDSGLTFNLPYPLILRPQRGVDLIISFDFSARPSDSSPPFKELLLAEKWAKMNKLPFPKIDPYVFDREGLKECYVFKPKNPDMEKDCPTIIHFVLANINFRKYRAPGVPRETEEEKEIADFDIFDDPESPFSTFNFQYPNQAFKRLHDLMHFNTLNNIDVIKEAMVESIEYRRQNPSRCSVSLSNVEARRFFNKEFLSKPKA

[3] = biological target: Hematopoietic prostaglandin D synthase (Homo sapiens) (UniProt O60760); experiment: Inhibition of recombinant PGDS (unknown origin) at 10 uM
Hematopoietic prostaglandin D synthase (Homo sapiens), sequence (O60760 whole entry): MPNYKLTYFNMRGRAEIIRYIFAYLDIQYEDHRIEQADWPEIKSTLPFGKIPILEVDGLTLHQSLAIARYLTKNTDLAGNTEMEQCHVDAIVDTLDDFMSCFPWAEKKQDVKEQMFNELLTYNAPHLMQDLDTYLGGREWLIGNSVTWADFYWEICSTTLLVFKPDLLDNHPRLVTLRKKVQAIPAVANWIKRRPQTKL

Prostaglandin G/H synthase 1 (Homo sapiens), sequence (P23219 whole entry): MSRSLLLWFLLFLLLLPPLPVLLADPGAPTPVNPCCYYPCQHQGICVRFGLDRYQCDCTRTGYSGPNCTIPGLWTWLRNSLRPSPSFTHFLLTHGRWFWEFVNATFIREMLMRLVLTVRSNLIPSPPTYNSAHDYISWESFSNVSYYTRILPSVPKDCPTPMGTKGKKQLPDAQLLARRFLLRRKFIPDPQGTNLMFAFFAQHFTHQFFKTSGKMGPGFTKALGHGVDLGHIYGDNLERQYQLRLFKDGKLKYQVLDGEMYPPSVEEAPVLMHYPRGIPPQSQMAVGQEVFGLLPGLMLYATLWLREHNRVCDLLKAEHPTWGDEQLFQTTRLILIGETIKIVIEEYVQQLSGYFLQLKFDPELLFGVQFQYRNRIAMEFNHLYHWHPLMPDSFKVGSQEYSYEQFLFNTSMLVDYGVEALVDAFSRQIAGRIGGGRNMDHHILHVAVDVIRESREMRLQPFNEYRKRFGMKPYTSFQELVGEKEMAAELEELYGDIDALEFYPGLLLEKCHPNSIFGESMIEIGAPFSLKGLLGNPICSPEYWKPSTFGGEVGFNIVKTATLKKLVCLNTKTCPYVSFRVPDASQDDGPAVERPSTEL

## CC(C)C(=O)NCc1ccc(Cl)c(-c2nc3cc(-c4ccc(C(F)(F)F)cc4)ncc3c(=O)[nH]2)c1
[1]
  inhibition: 2.74%
[2]
  inhibition: 12.1%
[3]
  inhibition: 18.7%
